Source: patent US20190225652A1, “GENERATION OF PEPTIDES” (Hexima Limited, priority 2015, published 2019)

B1: rOaAEP4: recombinant Oldenlandia affinis asparaginyl endopeptidase OaAEP4 (protein)
chain: MVRYPAGAVLLLVVLSVVAVDGARDGYLKLPSEVSDFFRPRNTNDGDDSVGTRWAVLLAGSNGYWNYRHQADLCHAYQILKRGGLKDENIVVFMYDDIAYNEENPRPGVIINSPHGSDVYAGVPKDYTGDEVNAKNFLAAILGNKSAITGGSGKVVDSGPNDHIFIYYTDHGAPGVIGMPSKPYLYADELNDALRKKHASGTYKSMVFYLEACEAGSMFDGLLPDGLNIYALTASNTTEGSWCYYCPGQDAGPPPEYSVCLGDFFSIAWLEDSDVHNLRSETLNQQYHNVKNRISYASHATQYGDLKRGVEGLFLYLGSNPENDNYTFVDDNVVRPSSKAVNQRDADLVHFWEKFRKAPEGSSKKEEAQKQILEAMSHRVHIDSSINLIGKLLFGIEKGHKILTAVRSAGHPLVDDWACLRSLVRTFETHCGSLSQYGMKHTRTLANICNAGITEEQMAEAASQACVSIPSNPWSSHDGGFSA
modifications: OaAEP4 aa
notes: recombinant Oldenlandia affinis asparaginyl endopeptidase OaAEP4
B2: rOaAEP3: recombinant Oldenlandia affinis asparaginyl endopeptidase OaAEP3 (protein)
chain: MVRYLAGAFQVVLLVVILSDIAISEERTDGYLKLPTEVSRFFRTPEQSSDGGDDSIGTRWAVLIAGSKGYDNYRHQADVCHAYQILKRGGLKDENIVVFMYDDIAYNESNPRPGVIINSPHGSDVYAGVPKDYTGDEVNAKNFLAAILGNKSAITGGSGKVVDSGPNDHIFIYYTDHGAPGVIGMPSKPYLYADELNDALRKKHASGTYKSMVFYLEACEAGSMFDGLLPDGLNIYALTASNTTEGSWCYYCPGQDAGPPPEYSVCLGDFFSIAWLEDSDVHNLRSETLNQQYHNVKNRISYASHATQYGDLKRGVEGLFLYLGSNPENDNYTFVDDNVVRPSSKAVNQRDADLVHFWEKFRKAPEGSSKKEEAQKQILEAMSHRVHIDSSINLIGKLLFGIEKGHKILTAVRSAGHPLVDDWACLRSLVRTFETHCGSLSQYGMKHTRTLANICNAGITEEQMAEAASQACVSIPSNPWSSHDGGFSA
modifications: Oldenlandia affinis OaAEP3

tested on: rOaAEP1b, rOaAEP3, rOaAEP4 and rOaAEP5; assay: Cyclization assay with rOaAEP1b, rOaAEP3, rOaAEP4 and rOaAEP5 (MALDI/ESI MS); format: biochemical, Oldenlandia affinis; details: peptides with added AEP recognition residues, 280 μM, enzymes 19.7 μg mL^−1 total protein, MS
Method: Linear target peptides (280 μM, unless otherwise indicated) were incubated with rOaAEP1b, rOaAEP3, rOaAEP4 or rOaAEP5 (total protein concentration as indicated in the description of figures) in activity buffer (50 mM sodium acetate, 50 mM NaCl, 1 mM ethylenediaminetetraacetic acid [EDTA], 0.5 μM Tris(2-carboxyethyl)phosphine hydrochloride [TCEP], pH 5). The reaction was allowed to proceed for up to 22 hours at room temperature and was analysed by matrix-assisted laser desorption/ionization mass spectrometry (MALDI MS), high performance liquid chromatography (HPLC) or nuclear magnetic resonance (NMR) as appropriate.
Cyclization or inter-molecular ligation of linear target peptides was monitored by MALDI or ESI MS. In both cases, the reaction mixture (5-50 μL) was de-salted using C18 zip tips (Millipore) and eluted in 4 μL 50-75% v/v acetonitrile, 0.1% v/v trifluoroacetic acid (TFA).
For MALDI MS, a saturated MALDI matrix solution (α-cyano-4-hyroxycinnamic acid, CHCA, Bruker) prepared in 95% v/v acetonitrile, 0.1% v/v TFA was diluted 1:22 such that the final matrix solution comprised 90% v/v acetonitrile, 0.1% v/v TFA and 1 mM NH4H2PO4. Eluted samples were mixed 1:4 with the MALDI matrix, spotted onto a MALDI plate and analyzed by an Ultraflex III TOF/TOF (Bruker) in positive reflector mode. Data were analyzed using the flexAnalysis program (Bruker).
For ESI MS, 96 μl of 75% v/v acetonitrile, 01% v/v TFA was added to the de-salted sample. The sample was then injected into a MicroTOF Q (Bruker) and data was collected in positive ionisation mode. The mass of ligated or cyclized product was determined by charge deconvolution using the Compass DataAnalysis program (Bruker).
The ability of activated AEPs (rOaAEP1b, rOaAEP3, rOaAEP4 and rOaAEP5) to cyclize peptide substrates structurally unrelated to cyclotides was tested in the cyclization assay described in the Materials and Methods. The anti-malarial peptide R1 (Harris et al. (2009) J Biol Chem 284(14):9361-9371; Harris et al. (2005) Infect Immun 73(10):6981-6989); Bac2A, a linear derivative of the bovine peptide bactenecin (Wu and Hancock (1999) Antimicrob Agents Ch 43:1274-1276); and the anti-fungal peptide EcAMP1 (Nolde et al. (2011) J Biol Chem 286(28):25145-25153) were produced with additional AEP recognition residues and used as the substrates.
To investigate the sequence requirements for in vitro cyclization, R1 was used as a model peptide. The recognition residues added to this model peptide were sequentially trimmed to determine the minimal requirements for AEP-mediated cyclization. The N- and C-terminal recognition residues were also substituted with alternate amino acids to determine if particular classes of residues were preferred for cyclization by these recombinant AEPs. The ability of activated AEPs (rOaAEP1b, rOaAEP3, rOaAEP4 and rOaAEP5) to cyclize the R1 peptide with varied flanking sequences was then tested in the cyclization assay described in the Materials and Methods (FIG. 10; Table 3).

Row | Molecule | cyclization of linear precursor peptide by recombinant AEPs
1 | GLPGSGRGSCRSQCMRRHEDEPWRVQECVSQCRRRRGGGDTRNGLP (additional AEP recognition residues; EcAMP1) [anti-fungal peptide EcAMP1 with additional AEP recognition residues] | efficiently cyclized
2 | GLPRLARIVVIRVARTRNGLP (Bac2A) | efficiently cyclized
3 | GLPVFAEFLPLFSKFGSRMHILKSTRNGL (R1) [anti-malarial peptide R1 produced with additional AEP recognition residues] | efficiently cyclized

tested on: rOaAEP1b; assay: Cyclization assay with rOaAEP1b (MALDI MS); format: biochemical, Oldenlandia affinis; details: MALDI MS
Sequence (as listed by the source): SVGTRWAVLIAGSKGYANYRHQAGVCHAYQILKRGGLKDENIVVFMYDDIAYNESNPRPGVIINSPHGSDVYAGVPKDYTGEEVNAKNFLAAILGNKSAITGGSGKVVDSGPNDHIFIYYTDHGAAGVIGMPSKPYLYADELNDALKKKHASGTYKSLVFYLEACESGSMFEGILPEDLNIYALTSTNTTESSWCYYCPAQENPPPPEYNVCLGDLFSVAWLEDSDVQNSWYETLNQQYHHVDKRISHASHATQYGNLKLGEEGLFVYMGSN

Row | Molecule | processing/cyclization by rOaAEP1b
4 | VFAEFLPLFSKFGSRMHILK [native R1 peptide, reference compound] | No processing

same assay, conditions: rOaAEP1b 12 μg mL^−1 total protein, 22 hours; peak area as percentage of total peak area of that peptide; average of three experiments

Row | Molecule | Cyclic product (%) | Linear precursor (%) | Linear product (%)
5 | GLPVFAEFLPLFSKFGSRMHILKSTRNGLP (rOaAEP1b-mediated processing) [SEQ ID NO: 26, R1 peptide derivative] | 78.8 | 21.2 | –
6 | GLVFAEFLPLFSKFGSRMHILKNG (rOaAEP1b-mediated processing) [SEQ ID NO: 28, R1 peptide derivative] | – | 100 | –
7 | GLVFAEFLPLFSKFGSRMHILKNGL (rOaAEP1b-mediated processing) [SEQ ID NO: 27, R1 peptide derivative] | 92.9 | 7.1 | –
8 | KLVFAEFLPLFSKFGSRMHILKNGL (rOaAEP1b-mediated processing) [SEQ ID NO: 31, R1 peptide derivative] | 82.2 | 17.8 | –
9 | QLVFAEFLPLFSKFGSRMHILKNGL (rOaAEP1b-mediated processing) [SEQ ID NO: 30, R1 peptide derivative] | 93.1 | 6.9 | –
10 | VFAEFLPLFSKFGSRMHILKNGL (rOaAEP1b-mediated processing) [SEQ ID NO: 29, R1 peptide derivative] | 49.6 | 27.7 | 27.7

tested on: target peptide-linker-ubiquitin-6xHis fusion protein; assay: AEP-mediated processing of target peptides fused to ubiquitin; format: biochemical; details: kalata B1-ubiquitin 260 μg mL^−1, AEP 19.7 μg mL^−1 total protein, 22 h, SDS-PAGE/anti-6xHis Western blot

Row | Molecule | proportion of fusion protein enzymatically processed (loss of precursor)
11 | rOaAEP5: recombinant Oldenlandia affinis asparaginyl endopeptidase OaAEP5 | the bulk of the precursor was being enzymatically processed
12 | B1 | a smaller proportion of the precursor protein was processed
13 | B2 | the bulk of the precursor was being enzymatically processed

tested on: not listed separately; assay: Protease activity against fluorogenic substrate Z-AAN-MCA; format: biochemical; details: enzyme ~5 μg mL^−1 total protein, Z-AAN-MCA 100 μM, 37° C., 60 minutes
Method: FIG. 15 is a graphical representation of the activity of recombinant O. affinis AEPs (˜5 μg mL^−1 total protein) and rhuLEG (1 μg mL^−1 total protein) over time against the fluorogenic substrate Z-AAN-MCA (100 μM). Activity is tracked at 1 minute intervals at 37° C. for 60 minutes using excitation and emission wavelengths of 360 and 460 nm respectively. A single representative experiment is shown. RFU, relative fluorescence units.
To assay activity of recombinant AEPs (rOaAEP1b, rOaAEP3, rOaAEP4 or rOaAEP5) against both internally-quenched and other fluorescent peptides, substrate and enzyme were diluted as appropriate in activity buffer (50 mM sodium acetate, 50 mM NaCl, 1 mM EDTA, 0.5 μM TCEP, pH 5). To assay activity of recombinant human legumain (rhuLEG; R&D systems) against the same substrates, the enzyme was first activated by incubation in 50 mM sodium acetate, 100 mM NaCl, pH 4 (4 μL buffer/1 μL enzyme) for 2 hours at 37° C. Substrates and activated rhuLEG were diluted in 50 mM acetate, 0.1% v/v triton X 100, 0.5 μM TCEP pH 5.5 or in 50 mM MES, 250 mM NaCl, pH 5 as required. Diluted enzyme and substrate were added to black, flat bottomed microtiter plates in a total assay volume of 100-200 μL. The change in fluorescence intensity over time was monitored on a SpectraMax M2 (Molecular Devices) using excitation/emission wavelengths of 320/420 nm (IQF peptides) or 360/460 nm (other fluorescent peptides).
AEP activity has traditionally been tracked by monitoring cleavage of the fluorescent substrate Z-AAN-MCA (where Z is carboxybenzyl; MCA is 7-amido-4-methylcoumarin) [Saska et al. (2007) supra; Rotari et al. (2001) Biol. Chem. 382:953-959]. Cleavage C-terminal to the Asn liberates the fluorophore which then fluoresces to report substrate cleavage. […] They are Ac-YVAD-CHO, which is routinely used to identify AEP activity (Hatsugai et al. (2004) Science 305(5685): 855-858) and Ac-STRN-CHO, which represents the P1-P4 residues of the C-terminal kB1 cleavage site. These traditional routes of identifying AEP activity will therefore likely be ineffective for identification of AEPs with cyclizing ability.

Row | Molecule | activity against Z-AAN-MCA
14 | rOaAEP5: recombinant Oldenlandia affinis asparaginyl endopeptidase OaAEP5 | nor rOaAEP1b, rOaAEP3, rOaAEP4 or rOaAEP5 (FIG. 15) had detectable activity
15 | B1 | nor rOaAEP1b, rOaAEP3, rOaAEP4 or rOaAEP5 (FIG. 15) had detectable activity
16 | B2 | nor rOaAEP1b, rOaAEP3, rOaAEP4 or rOaAEP5 (FIG. 15) had detectable activity
